“Also recorded” adds a separate entry of the source.
How the values were obtained:
brain = assay: Brain ROS/RNS, antioxidant defense and bioenergetic/mitochondrial parameters at 21 days; assay type: in vivo, mouse
Excerpt: (b) Levels of the central bioenergetic metabolite Acetyl-CoA expressed in nmol/g. Expression of genes coding for PGC-lalpha quantified by RT-qPCR from RNA isolated from brains extracted from control and CLP mice with or without MnTBAP.
(§1) Data shown are mean values (±SD). Gray bars represent MnTBAP-treated mice from either CLP or control groups, and black bars represent placebo-treated mice from either CLP or Control groups. Two-way analyses of variance (ANOVAs) (CLP vs Control×MnTBAP vs Placebo) were performed. When a significant interaction was observed, planned comparisons were performed for the CLPI/Placebo group against the three other groups. The significance of the planned comparisons is indicated with asterisks (*p<0.05, **p<0.01, ***p<0.001, ****p<0.0001) .
(§2) MnTBAP is commercially available: it is for example manufactured by Sigma-Aldrich, Calbiochem, etc. For use it is dissolved following the guidance provided by the manufacturer.
Total RNA was isolated from cells using the RNAeasy Micro kit (Qiagen), and reverse-transcribed using Superscript® III Reverse transcriptase (Invitrogen). Real-time quantitative PCR was performed in duplicate for each sample using Power Sybr Green PCR Master Mix (Applied Biosystems) and the rate of dye incorporation was monitored using the StepOne™ Plus RealTime PCR system (Applied Biosystems). Data were analyzed by StepOne Plus RT PCR software v2.1 and Microsoft excel. Amplification specificity was assessed with a melting curve analysis. TBP transcript levels were used for normalisation of each target (=ΔCT). Real-time PCR CT values were analyzed using the 2^−(ΔCt) method to calculate the fold expression (Schmittgen et al., 2008). The data are presented as relative mRNA units with respect to control group (expressed as fold over control value). Primer sequences available upon request.
Microglial cells and brain samples were resuspended in lysis buffer (50 mM TrisHCI pH 7.5, 150 mM NaCl, 1% Triton X-100, 0.1% SDS, 1 mM EDTA, and protease inhibitor mixture), mechanically homogenized with a piston, briefly vortexed and incubated for 30 min at 4° C. Lysed samples were briefly centrifuged to remove debris, and the whole supernatant extract was collected. Aliquots of the supernatant were immediately used for the assessment of ROS level, RNS level, dual ROS/RNS level, SOD activity, and Acetyl-Coa level. The protein content was determined with the Bradford reagent (Sigma-Aldrich).
Both ROS and RNS were measured by incubating CellROX (Life Technologies) with 30 μg of freshly extracted total proteins for 45 min at 37° C. in the dark in 96-wells plate in triplicate. Fluorescence intensity was measured using near-infra-red fluorescence setting with the plate reader Odyssey Infrared Imaging system scanner and Odyssey application software v3.0 (LI-COR Biosciences, Lincoln, NE).
SOD activity was measured with Superoxide Dismutase Activity Colorimetric Assay kit (Abcam, ab65354), following the manufacturer's instructions. This measurement assesses SOD-dependent inhibition of superoxide anion reduction. Tests were performed with 30 μg of freshly extracted total proteins, quantified by Bradford assay, or with 10 μl of serum, in triplicate.
Total DNA was prepared using extraction buffer (0.2 mg ml^−1 proteinase K, 0.2% SDS and 5 mM EDTA in PBS) and incubated at 50° C. for 3 h. DNA was precipitated with 3 M sodium acetate (pH 5.2) and isopropanol for 20 min on ice before centrifugation at 8,000 g at 4° C. The DNA pellet was washed and briefly air-dried. qPCR amplification was performed on total DNA using the StepOne Plus RealTime PCR system (Applied Biosystems) and Power Sybr Green PCR Master mix (ABI) following the manufacturer's instruction. A fragment of mitochondrial COI gene, the established marker for mtDNA content in mouse cells, was amplified using the nuclear encoded Ndufv1 gene as endogenous reference. […]

control and CLP mice = assay: Novel Object Recognition test (NOR); assay type: in vivo, mouse; settings: septic (CLP) mice, systemic MnTBAP treatment
Procedure: as §1, with “CLP/Placebo” for “CLPI/Placebo”, “****p<0.0001).” for “****p<0.0001) .”
as §2
Twice a week after the CLP, survival mice were gently handled for at least four 5-min sessions to habituate to the experimenter. Then, 20 and 21 days after CLP, mice were submitted to the novel object location (NOL) and novel object recognition (NOR) tests. […]
The familiarization sessions consisted on 10 min of free exploration of two identical objects, placed inside the same open field arena that the mice had visited on the previous day. […] Then, the percentage of exploration of the new object was calculated, reflecting the retention of the familiar object memory at long-term (24 h). […]

[1] = CLP mice + MnTBAP, 21 days after sepsis
[2] = CLP mice + MnTBAP, 21 days after sepsis, remained different from Control-Placebo
[3] = MnTBAP in control mice vs Control-placebo mice
[4] = MnTBAP in control mice vs Control-placebo mice, p<0.0001

Question: Which “brain acetyl-coA levels” value (brain; [1]) does the source give for O=C(O)c1ccc(/C2=C3\C=CC(=N3)/C(c3ccc(C(=O)O)cc3)=c3/cc/c4[n]3[Mn]([Cl])[n]3c2ccc3/C(c2ccc(C(=O)O)cc2)=C2/C=CC(=N2)\C=4c2ccc(C(=O)O)cc2)cc1 [MnTBAP, Manganese (III) tetrakis (4-benzoic acid)porphyrin chloride] here?
Answer: strongly decreased

Question: And the “brain mtRNA 16S levels” value (brain; [1])?
Answer: strongly decreased

Question: And the “brain ATP production” value (brain; [2])?
Answer: significantly increasing

Question: And the “brain ROS/RNS levels” value (brain; [2])?
Answer: significantly increasing

Question: What about the “brain SOD1 expression” value (brain; [2]) of the same compound?
Answer: significantly increasing

Question: And the “brain SOD activity levels” value (brain; [2])?
Answer: significantly increasing

Question: What about the sepsis-induced brain alterations (brain; CLP mice, 21 days after sepsis) of the same compound?
Answer: counteracted

Question: What about the “brain PGC1 alpha expression” value (brain; [3]) of the same compound?
Answer: did not affect

Question: What about the “brain acetyl-coA levels” value (brain; [3]) of the same compound?
Answer: did not affect

Question: What about the brain catalase expression (brain; [3]) of the same compound?
Answer: did not affect

Question: What about the “brain ATP production” value (brain; [4]) of the same compound?
Answer: increase

Question: What about the “brain NRF2 expression” value (brain; [4]) of the same compound?
Answer: increase

Question: And the “brain SOD1 expression” value (brain; [4])?
Answer: increase

Question: What about the “brain SOD2 expression” value (brain; [4]) of the same compound?
Answer: increase

Question: What about the “brain SOD activity” value (brain; [4]) of the same compound?
Answer: increase

Question: And the “brain mtDNA content” value (brain; [4])?
Answer: increase

Question: What about the “brain mtRNA 16S level” value (brain; MnTBAP in control mice vs Control-placebo mice, p=0.0005) of the same compound?
Answer: increase

Question: And the “brain ROS/RNS levels” value (brain; MnTBAP in control mice vs Control-placebo mice, p=0.001)?
Answer: increase

Question: What about the “brain mtRNA CytB level” value (brain; MnTBAP in control mice vs Control-placebo mice, p=0.04) of the same compound?
Answer: increase

Question: What about the “cognition / long-term cognitive function” value (control and CLP mice) of the same compound?
Answer: restored cognition; also recorded: successfully restores long-term cognitive function

Reference: US20240148749A1 (priority 2021, published 2024)
